Laboratory results as given in patent US20130266557A1, “METHODS FOR TREATMENT OF A SARCOMA USING AN EPIMETABOLIC SHIFTER (COENZYME Q10)” (priority 2009, published 2013).

Columns and labels:
[1] = test system: mitochondrial preparation of NICES0808 sample; assay: 2-D gel analysis of mitochondrial preparation; type: cell-based, human; conditions: direction not given
Protocol: NCIES0808 cells were treated with Q10 separately in larger volumes for isolation of sufficient mitochondria for proteomic analysis. Cells were treated with media, 50 uM Q10 or 100 uM Q10 for 0, 3, 6, 24 and 48 hours in T175 flasks. Two flasks were grown for each condition and cells from the two were pooled during harvesting. After the required treatment time, cells were trypsinized and washed twice in ice cold TBS. Pelleted cells were snap frozen in liquid nitrogen and frozen at −80° C. until mitochondria were isolated. Mitochondria were isolated using manufacturers instructions available with the MitoProfile Mitosciences Isolation Kit for Cultured Cells (Mitosciences Inc, Eugene, Oreg.).
Before isoelectric focusing (IEF), samples were solubilized in 40 mM Tris, 7 M urea, 2 M thiourea, and 1% C7 zwitterionic detergent, reduced with tributylphosphine, and alkylated with 10 mM acrylamide for 90 min at room temperature. After the sample was run through a 10-kDa cutoff Amicon Ultra device with at least 3 volumes of the resuspension buffer, consisting of 7 M urea, 2 M thiourea, and 2% CHAPS to reduce the conductivity of the sample. One hundred micrograms of protein were subjected to IEF on 11-cm pH 3 to 10, pH 4 to 7 or pH 6 to 11 immobilized pH gradient strips (GE, Amersham, USA) to 100,000 volts hour. After IEF, immobilized pH gradient strips were equilibrated in 6 M urea, 2% SDS, 50 mM Tris-acetate buffer, pH 7.0, and 0.01% bromphenol blue and subjected to SDS-polyacrylamide gel electrophoresis on 8 to 16% Tris-HCl Precast Gel, 1 mm (Bio-Rad, USA). The gels were run in duplicate. They were fixed, stained in SYPRO Ruby, 80 mL/gel (Invitrogen, USA) and imaged on Fuji FLA-5100 laser scanner.
A mitochondrial preparation of NICES0808 sample was also analyzed for proteins and below, in Table 8, is the list of proteins the amount of which was modulated following treatment with CoQ10.

[2] = test system: NCIES0808 cells; assay: Western blot analysis; type: cell-based, human
Protocol: Cells were grown and treated with CoQ10 at 50 uM and 100 uM, along with the proper controls. The total cell lysates (as prepared above) were processed and evaluated by Western blot analysis. Proteins from each treatment group were resolved on SDS-PAGE and transferred onto PVDF membranes. They were then hybridized with antibodies.
Either 5 or 10 μg of protein was assayed per sample by immunoblotting. Proteins were separated on 10-20% Tris-HCl gels or 4-12% Bis-Tris gels, transferred via electrophoresis to PVDF membranes and blocked using a 5% GE/Amersham ECF blocker and TBST solution prior to incubation with primary antibodies. The primary antibodies were incubated overnight at 4 degrees C. in a 5% BSA and TBST solution. Secondary antibodies were incubated for one hour at room temperature. All antibodies were purchased from commercial vendors. Antibodies were used at the manufacturers' recommended dilution, with the control βActin at a dilution of 1:5000. Blots were developed using GE/Amersham ECF reagent, and results were quantified using the Fuji FL-5100 laser scanner and Bio-Rad Quantity One densitometry analysis software. All blots were also probed for and normalized to their respective βActin expression.
NCIES0808 cells treated for 24 hours with 50 or 100 μM Q10 were subjected to Western blot analysis and were analyzed to identify protein-level changes relative to the control media samples.
Protein obtained from the treated cells was evaluated by Western blot analysis against an antibody for Angiotensin-converting enzyme (ACE) (FIG. 4A), an antibody for Caspase 3 (FIG. 4B), an antibody for GARS (FIG. 4C), an antibody for Matrix Metalloproteinase 6 (MMP-6) (FIG. 4D) and a series of antibodies for Neurolysin (NLN) (FIGS. 4E-F).

[3] = test system: Ewing JDT cell line; assay: Protein expression in Ewing JDT cell line; type: cell-based
[4] = test system: cancer cell lines (SK-MEL-28, SK-MEL-2, SCC, PaCa2, HEP-G2) and control keratinocytes and melanocytes; assay: Sensitivity and apoptotic response of a cell line panel (Example 1); type: cell-based; conditions: various levels of Coenzyme Q10
Protocol: In a first set of experiments, changes to cell morphology/physiology were evaluated by examining the sensitivity and apoptotic response of cells to CoQ10. A panel of skin cell lines including a control cell lines (primary culture of keratinocytes and melanocytes) and several skin cancers cell lines (SK-MEL-28, a non-metastatic skin melanoma; SK-MEL-2, a metastatic skin melanoma; or SCC, a squamous cell carcinoma; PaCa2, a pancreatic cancer cell line; or HEP-G2, a liver cancer cell line) were treated with various levels of Coenzyme Q10.

[5] = test system: melanoma cell; assay: Bcl2 level in the presence of VEGF; type: cell-based
Excerpt: (§1) The term “Multidimensional Intracellular Molecule (MIM)”, is an isolated version or synthetically produced version of an endogenous molecule that is naturally produced by the body and/or is present in at least one cell of a human. A MIM is capable of entering a cell and the entry into the cell includes complete or partial entry into the cell as long as the biologically active portion of the molecule wholly enters the cell. MIMs are capable of inducing a signal transduction and/or gene expression mechanism within a cell. MIMs are multidimensional because the molecules have both a therapeutic and a carrier, e.g., drug delivery, effect. MIMs also are multidimensional because the molecules act one way in a disease state and a different way in a normal state.

[6] = test system: normal fibroblast; assay: Bcl2 level on co-administration with VEGF; type: cell-based; conditions: co-administration of CoQ-10 and VEFG
Excerpt: as §1

[7] = human plasma; cited from earlier work
[8] = molecular target: mitochondrial complex II (Homo sapiens, UniProt O14521+P21912+Q99643); conditions: cancer cells; Mazzio and Soliman 2004; cited from earlier work
[9] = test system: cancer patients; conditions: eight case histories, oral CoQ10; cited from earlier work
[10] = 24 hours with 50 or 100 μM Q10, relative to control media

Chain of mitochondrial complex II (P31040 43-664 partner): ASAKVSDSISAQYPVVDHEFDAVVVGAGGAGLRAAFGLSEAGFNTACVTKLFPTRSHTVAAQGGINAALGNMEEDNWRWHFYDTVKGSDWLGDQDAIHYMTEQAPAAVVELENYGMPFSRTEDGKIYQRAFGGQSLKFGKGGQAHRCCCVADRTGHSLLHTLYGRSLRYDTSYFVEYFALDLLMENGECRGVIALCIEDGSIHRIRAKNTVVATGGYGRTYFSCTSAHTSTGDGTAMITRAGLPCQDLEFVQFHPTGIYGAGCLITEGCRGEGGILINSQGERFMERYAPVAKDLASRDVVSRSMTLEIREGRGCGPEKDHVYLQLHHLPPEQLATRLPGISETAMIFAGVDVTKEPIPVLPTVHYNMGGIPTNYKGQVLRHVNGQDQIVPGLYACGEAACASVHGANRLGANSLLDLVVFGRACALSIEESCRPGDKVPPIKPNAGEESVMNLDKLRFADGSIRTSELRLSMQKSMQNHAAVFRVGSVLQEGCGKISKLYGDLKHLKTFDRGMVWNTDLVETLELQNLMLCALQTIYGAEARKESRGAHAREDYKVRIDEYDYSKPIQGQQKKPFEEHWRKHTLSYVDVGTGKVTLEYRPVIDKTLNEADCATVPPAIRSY
Chain of mitochondrial complex II (P21912 29-280): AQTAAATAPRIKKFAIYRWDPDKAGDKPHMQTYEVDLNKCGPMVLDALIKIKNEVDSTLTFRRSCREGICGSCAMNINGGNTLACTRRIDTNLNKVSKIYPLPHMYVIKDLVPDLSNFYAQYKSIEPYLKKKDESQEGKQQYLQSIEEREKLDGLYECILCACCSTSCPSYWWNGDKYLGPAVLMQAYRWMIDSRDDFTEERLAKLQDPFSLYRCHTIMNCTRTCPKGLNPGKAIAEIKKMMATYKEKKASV
Chain of mitochondrial complex II (Q99643 30-169): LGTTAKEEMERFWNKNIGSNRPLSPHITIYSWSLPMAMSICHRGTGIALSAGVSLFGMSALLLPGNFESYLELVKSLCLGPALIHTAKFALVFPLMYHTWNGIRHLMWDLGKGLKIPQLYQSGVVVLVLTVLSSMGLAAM
Chain of mitochondrial complex II (O14521 57-159): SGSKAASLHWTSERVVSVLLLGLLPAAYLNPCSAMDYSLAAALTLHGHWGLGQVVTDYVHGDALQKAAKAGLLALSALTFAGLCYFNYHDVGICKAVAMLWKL

Coenzyme Q10 [CoQ10]
Proteins Modulated in NCIES0808 cells treated with CoQ10 (value = protein) ([1]; gel spot 37): eukaryotic translation elongation factor 1 beta 2
Proteins Modulated in NCIES0808 cells treated with CoQ10 (value = protein) ([1]; gel spot 108): retinoblastoma binding protein 4 isoform A
Proteins Modulated in NCIES0808 cells treated with CoQ10 (value = protein) ([1]; gel spot 172): cytoplasmic dynein IC-2
Proteins Modulated in NCIES0808 cells treated with CoQ10 (value = protein) ([1]; gel spot 227): chaperonin containing TCP1, subunit 3
Proteins Modulated in NCIES0808 cells treated with CoQ10 (value = protein) ([1]; gel spot 1000): TAR DNA binding protein
Caspase 3 protein level by Western blot ([2]; 24 hours of treatment with 100 μM Q10): marked downregulation
Angiotensin-converting enzyme (ACE) protein level by Western analysis [2, 10]: downregulated
Caspase 3 protein level by Western analysis [2, 10]: downregulated
GARS protein level by Western analysis [2, 10]: downregulated
Matrix Metalloproteinase 6 protein level by Western analysis [2, 10]: downregulated
Neurolysin protein level by Western analysis [2, 10]: downregulated
increase in Caspase 3 expression ([3]; 100 μM CoQ10, within one hour after exposure): 30%
Caspase 3 expression ([3]; one hour after CoQ10 treatment): significant increase
p53 expression ([3]; one hour after treatment with CoQ10): significant increase
Apoptotic response of cancer vs control cell lines [4]: induction of apoptosis and cell death in the cancer cells only
Level of Bcl2 [5]: decreased level of Bcl2
Level of Bcl2 [6]: no effect on the levels of Bcl2
Share of the molecule found in the reduced form (Q10H2) [7]: 90%
Effect on Vmax of mitochondrial complex II activity [8]: increase the Vmax of mitochondrial complex II activity
Survival of cancer patients on therapy with CoQ10 [9]: 5-15 years
